For one test, the target named is T1, c-Met kinase (Homo sapiens, UniProt P08581).
T1 construct: c-Met kinase domain recombinant protein diluted with 49 μL of the reaction buffer was added
The test can be described thus: Inhibitory effect on c-Met kinase activity at molecular level (ELISA).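 Note: recombinant c-Met kinase domain with 5 µM ATP, 1 h at 37 °C, substrate phosphorylation detected by anti-phosphotyrosine PY99 ELISA at 490 nm versus DMSO negative control, ATP-free wells as blank.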 In kind it is biochemical. In general terms: An ELISA detects its analyte on a solid surface through an enzyme-linked reagent.

The test system of another test is EBC-1 cells. The test is described as follows: Inhibition of c-Met-mediated EBC-1 cell proliferation (SRB staining). In kind it is cell-based. Conditions: Homo sapiens, 72 hours treatment. On the procedure: The inhibitory effect of the compounds on the growth of non-small cell cancer EBC-1 cell (a cell line in which Met is continually activated due to the amplification of MET gene, and is a Met-dependent tumor cell line) was measured by sulforhodamine B (SRB) staining assay. A certain amount of EBC-1 cells in their logarithmic growth phase were seeded in 96-well plates at 90 μL per well and cultured overnight, then 10 μL of different concentrations of compounds or solvent control were added thereto, three wells for each concentration. After treated by the compound for 72 hours, the adherent cells were removed of culture medium and fixed with 10% (w/v) trichloroacetic acid (100 μL/well) at 4° C. for 1 hr followed by rinsing with distilled water five times. After drying at room temperature, 100 μL of SRB solution (dissolved in 1% glacial acetic acid at 4 mg/mL) was added to each well to incubate and stain the cells for 15 min at room temperature, then unbound SRB was washed off with 1% glacial acetic acid for five times. After drying at room temperature, 100 μL of 10 mM Tris solution was added to each well. The optical density (OD value) at 515 nm was read on a VERSMax microplate reader. […] The experiment was repeated twice. The IC50 data was calculated as a range based on the test results of concentrations set in the initial screening test.
On the technique in general: In SRB staining, fixed cells bind dye roughly in proportion to their protein.

T1 sequence (P08581 1078-1345 limits assumed): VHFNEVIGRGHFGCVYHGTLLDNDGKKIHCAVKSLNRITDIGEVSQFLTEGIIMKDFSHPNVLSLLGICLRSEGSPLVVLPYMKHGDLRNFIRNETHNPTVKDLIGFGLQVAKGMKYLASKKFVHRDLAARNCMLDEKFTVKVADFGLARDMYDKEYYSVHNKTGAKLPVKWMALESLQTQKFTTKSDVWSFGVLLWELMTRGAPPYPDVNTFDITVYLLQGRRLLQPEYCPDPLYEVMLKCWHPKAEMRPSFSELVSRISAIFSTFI
Description for c-Met kinase: Experiment for Preliminarily Evaluating the Inhibitory Effect on the Activity of Receptor Tyrosine Kinase c-Met at Molecular Level
After discarding the liquid in the wells, the plate was washed with T-PBS (0.1% Tween-20 in PBS) in an amount of 200 μL/well three times, each for 5 minutes. The ELISA plate was dried in an oven at 37° C. for 1-2 hours. 50 μl of adenosine triphosphate (ATP) solution diluted with reaction buffer (50 mM 4-hydroxyethylpiperazine ethanesulfonic acid (HEPES) pH 7.4, 50 mM MgCl2, 0.5 mM MnCl2, 0.2 mM Na3VO4, 1 mM dithiothreitol (DTT)) to a final concentration of 5 μM was added to each well. The compounds were diluted to an appropriate concentration with DMSO (1 μL/well) or a solution containing DMSO in a corresponding concentration (negative control well), and then c-Met kinase domain recombinant protein diluted with 49 μL of the reaction buffer was added therein to initiate the reaction, with two ATP-free control wells for each test. The plate was placed in a shaker (100 rpm) at 37° C. for reacting 1 hour, and washed with T-PBS three times. Primary antibody PY99 diluent was added in an amount of 100 μL/well to allow the reaction in a shaker at 37° C. for 0.5 hour, and then the plate was washed with T-PBS three times. Then the secondary antibody horseradish peroxidase labeled goat anti-mouse IgG diluent was added in an amount of 100 μL/well, and the plate was placed in a shaker at 37° C. for reacting 0.5 hour, and then washed with T-PBS three times. 2 mg/ml of o-phenylenediamine (OPD) coloring solution (diluted with 0.1 M citric acid-sodium citrate buffer (pH=5.4) containing 0.03% H2O2) was then added at 100 μL/well and reacted at 25° C. for 1-10 min with light blocked (ultrasound was required to dissolve OPD, the coloring solution was prepared when needed). The reaction was stopped by adding 2 M of H2SO4 in an amount of 50 μL/well, and a wavelength-adjustable microplate reader SPECTRA MAX 190 was read at 490 nm.
The inhibition rate of the sample was calculated by the following equation:

In general, IC50 refers to the concentration that inhibits the measured activity by half. A lower IC50 goes with greater potency in that assay. Take `O=C(Nc1ccc(F)cc1)C1(C(=O)Nc2ccc(Oc3ccnc4cc(-c5ccc(F)c(F)c5)ncc34)c(F)c2)CC1` [Compound 49S, N-(3-fluoro-4-((7-(3,4-difluorophenyl)-1,6-naphthyridin-4-yl)oxy)phenyl)-N-(4-fluorophenyl)cyclopropyl-1,1-dicarboxamide]: the IC50 against c-Met kinase lay in the range of 1 to 10 nM; in the test on EBC-1 cells, 10 to 100 nM.
For `O=C(Nc1ccc(Oc2ccnc3cc(OCCN4CCOCC4)ncc23)c(F)c1)c1cccn(-c2ccc(F)cc2)c1=O` [Compound 15S, N-(3-fluoro-4-((7-(2-morpholinoethoxy)-1,6-naphthyridin-4-yl)oxy)phenyl)-1-(4-fluorophenyl)-2-oxo-1,2-dihydropyridine-3-carboxamide], the IC50 against c-Met kinase lay in the range of 1 to 10 nM; with EBC-1 cells it was 10 to 100 nM.
In the same order, the values of `O=C(Nc1ccc(F)cc1)C1(C(=O)Nc2ccc(Oc3ccnc4cc(-c5cnn(C6CCNCC6)c5)ncc34)c(F)c2)CC1` [Compound 42S, N-(3-fluoro-4-((7-(1-(piperidin-4-yl)-1H-pyrazol-4-yl)-1,6-naphthyridin-4-yl)oxy)phenyl)-N-(4-fluorophenyl) cyclopropyl-1,1-dicarboxamide] are 1 to 10 nM and 1 to 10 nM.
With `O=C(Nc1ccc(F)c(F)c1)C1(C(=O)Nc2ccc(Oc3ccnc4cc(OCCN5CCOCC5)ncc34)c(F)c2)CC1` [Compound 23S, N-(3,4-difluorophenyl)-N-(3-fluoro-4-((7-(2-morpholinoethoxy)-1,6-naphthyridin-4-yl)oxy)phenyl) cyclopropyl-1,1-dicarboxamide], the IC50 lay within 1 to 10 nM against c-Met kinase and 100 to 1000 nM with EBC-1 cells.
In the case of `O=C(Nc1ccc(Oc2ccnc3cc(OCCN4CCOCC4)ncc23)c(F)c1)c1c[nH]cc(-c2ccc(F)cc2)c1=O` [Compound 22S, N-(3-fluoro-4-((7-(2-morpholinoethoxy)-1,6-naphthyridin-4-yl)oxy)phenyl)-5-(4-fluorophenyl)-4-oxo-1,4-dihydropyridine-3-carboxamide], the IC50 is 1 to 10 nM against c-Met kinase and 10 to 100 nM with EBC-1 cells.
In the same order, the values of `COc1cc2nccc(Oc3ccc(NC(=O)C4(C(=O)Nc5ccc(F)cc5)CC4)cc3F)c2cn1` [Compound 3S, N-(4-((7-methoxy-1,6-naphthyridin-4-yl)oxy)-3-fluorophenyl)-N-(4-fluorophenyl)cyclopropyl-1,1-dicarboxamide] are 1 to 10 nM and 100 to 1000 nM.
In the case of `O=C(Nc1ccc(F)cc1)C1(C(=O)Nc2ccc(Oc3ccnc4ncc(NCCCN5CCOCC5)nc34)c(F)c2)CC1` [Compound 63S, N-(3-fluoro-4-((2-((3-morpholinopropyl)amino)pyrido[2,3-b]pyrazin-8-yl)oxy)phenyl)-N-(4-fluorophenyl) cyclopropyl-1,1-dicarboxamide], the IC50 lay within 1 to 10 nM at c-Met kinase and 1000 to 10000 nM in the test on EBC-1 cells.
In the same order, the values of `O=C(Nc1ccc(F)cc1)C1(C(=O)Nc2ccc(Oc3ccnc4ncc(Cl)nc34)c(F)c2)CC1` [Compound 56S] are 100 to 1000 nM and 1000 to 10000 nM.
In the case of `O=C(Nc1ccc(F)cc1)C1(C(=O)Nc2ccc(Oc3ccnc4nc(Cl)cnc34)c(F)c2)CC1` [Compound 55S, N-(4-((3-chloropyrido[2,3-b]pyrazin-8-yl)oxy)-3-fluorophenyl)-N-(4-fluorophenyl)cyclopropyl-1,1-dicarboxamide], the IC50 against c-Met kinase was 10 to 100 nM; with EBC-1 cells, 1000 to 10000 nM.
In the same order, the values of `O=C(Nc1ccc(F)cc1)C1(C(=O)Nc2ccc(Oc3ccnc4cc(-c5cncnc5)ncc34)c(F)c2)CC1` [Compound 47S, N-(3-fluoro-4-((7-(pyrimidin-5-yl)-1,6-naphthyridin-4-yl)oxy)phenyl)-N-(4-fluorophenyl)cyclopropyl-1,1-dicarboxamide] are 1 to 10 nM and 10 to 100 nM.
In the same order, the values of `O=C(Nc1ccc(Oc2ccnc3cc(OCCN4CCOCC4)ncc23)c(F)c1)c1c[nH]cc(-c2ccccc2)c1=O` [Compound 20S, N-(3-fluoro-4-((7-(2-morpholinoethoxy)-1,6-naphthyridin-4-yl)oxy)phenyl)-4-oxo-5-phenyl-1,4-dihydropyridine-3-carboxamide] are 1 to 10 nM and 10 to 100 nM.
For `O=C(Nc1ccc(F)cc1)C1(C(=O)Nc2ccc(Oc3ccnc4cc(Cl)ncc34)c(F)c2)CC1` [Compound 1S, N-(4-((7-chloro-1,6-naphthyridin-4-yl)oxy)-3-fluorophenyl)-N-(4-fluorophenyl) cyclopropyl-1,1-dicarboxamide] the same measures were 1000 to 10000 nM and 100 to 1000 nM.
Take `O=C(Nc1ccc(F)cc1)C1(C(=O)Nc2ccc(Oc3ccnc4cc(-c5ccncc5)ncc34)c(F)c2)CC1` [Compound 46S, N-(3-fluoro-4-((7-(pyridin-4-yl)-1,6-naphthyridin-4-yl)oxy)phenyl)-N-(4-fluorophenyl)cyclopropyl-1,1-dicarboxamide]: the values for the IC50 against c-Met kinase and with EBC-1 cells were 1 to 10 nM and 100 to 1000 nM, respectively.
In the same order, the values of `Cn1cc(-c2cc3nccc(Oc4ccc(NC(=O)c5c[nH]cc(-c6ccc(F)cc6)c5=O)cc4F)c3cn2)cn1` [Compound 54S, N-(3-fluoro-4-((7-(1-methyl-1H-pyrazol-4-yl)-1,6-naphthyridin-4-yl)oxy)phenyl)-5-(4-fluorophenyl)-4-oxo-1,4-dihydropyridine-3-carboxamide] are 1 to 10 nM and 10 to 100 nM.
For `O=C(Nc1ccc(F)cc1)C1(C(=O)Nc2ccc(Oc3ccnc4nc(N5CCNCC5)cnc34)c(F)c2)CC1` [Compound 64S, N-(4-((3-piperazinyl-pyrido[2,3-b]pyrazin-8-yl)oxy)-3-fluorophenyl)-N-(4-fluorophenyl)cyclopropyl-1,1-dicarboxamide] the same measures were 1 to 10 nM and 1000 to 10000 nM.
In the same order, the values of `O=C(Nc1ccc(F)cc1)C1(C(=O)Nc2ccc(Oc3ccnc4ncc(N5CCOCC5)nc34)c(F)c2)CC1` [Compound 58S] are 100 to 1000 nM and 1000 to 10000 nM.
In the case of `CS(=O)(=O)n1cc(-c2cc3nccc(Oc4ccc(NC(=O)C5(C(=O)Nc6ccc(F)cc6)CC5)cc4F)c3cn2)cn1` [Compound 40S, N-(3-fluoro-4-((7-(1-(methylsulfonyl)-1H-pyrazol-4-yl)-1,6-naphthyridin-4-yl)oxy)phenyl)-N-(4-fluorophenyl) cyclopropyl-1,1-dicarboxamide], the IC50 on c-Met kinase fell in the range of 1 to 10 nM; in the test on EBC-1 cells it was 10 to 100 nM.
In the same order, the values of `CC(C)n1cc(-c2cc3nccc(Oc4ccc(NC(=O)C5(C(=O)Nc6ccc(F)cc6)CC5)cc4F)c3cn2)cn1` [Compound 41S, N-(3-fluoro-4-((7-(1-isopropyl-1H-pyrazol-4-yl)-1,6-naphthyridin-4-yl)oxy)phenyl)-N-(4-fluorophenyl) cyclopropyl-1,1-dicarboxamide] are 1 to 10 nM and 1 to 10 nM.
With `CN1CCN(CCOc2cc3nccc(Oc4ccc(NC(=O)C5(C(=O)Nc6ccc(F)cc6)CC5)cc4F)c3cn2)CC1` [Compound 11S, N-(3-fluoro-4-((7-(2-(4-methylpiperazin-1-yl)ethoxy)-1,6-naphthyridin-4-yl)oxy)phenyl)-N-(4-fluorophenyl) cyclopropyl-1,1-dicarboxamide], the IC50 at c-Met kinase lay within 1 to 10 nM; in the test with EBC-1 cells it was 100 to 1000 nM.
For `O=C(Nc1ccc(F)cc1)C1(C(=O)Nc2ccc(Oc3ccnc4cc(-c5cn[nH]c5)ncc34)c(F)c2)CC1` [Compound 39S, N-(4-((7-(1H-pyrazol-4-yl)-1,6-naphthyridin-4-yl)oxy)-3-fluorophenyl)-N-(4-fluorophenyl)cyclopropyl-1,1-dicarboxamide] the same measures were 1 to 10 nM and 1 to 10 nM.
In the case of `O=C(Nc1ccc(F)cc1)C1(C(=O)Nc2ccc(Oc3ccnc4nc(N5CCOCC5)cnc34)c(F)c2)CC1` [Compound 57S], the IC50 at c-Met kinase fell in the range of 10 to 100 nM; with EBC-1 cells it was 1000 to 10000 nM.
With `O=C(Nc1ccc(F)cc1)C1(C(=O)Nc2ccc(Oc3ccnc4ncc(N5CCNCC5)nc34)c(F)c2)CC1` [Compound 65S, N-(4-((2-piperazinyl-pyrido[2,3-b]pyrazin-8-yl)oxy)-3-fluorophenyl)-N-(4-fluorophenyl)cyclopropyl-1,1-dicarboxamide], the half-inhibitory concentration (IC50) against c-Met kinase and in the test on EBC-1 cells was 1000 to 10000 nM each time.
For the molecule `O=C(Nc1ccc(F)cc1)C1(C(=O)Nc2ccc(Oc3ccnc4ncc(OCCN5CCOCC5)nc34)c(F)c2)CC1` [Compound 67S, N-(3-fluoro-4-((2-(2-morpholinoethoxy)pyrido[2,3-b]pyrazin-8-yl)oxy)phenyl)-N-(4-fluorophenyl)cyclopropyl-1,1-dicarboxamide], the concentration for half-maximal inhibition (IC50) against c-Met kinase and in the test with EBC-1 cells was 1000 to 10000 nM each time.
As for `COc1cc(NC(=O)C2(C(=O)Nc3ccc(Oc4ccnc5cc(OCCN6CCOCC6)ncc45)c(F)c3)CC2)ccc1F` [Compound 24S, N-(4-fluoro-3-methoxyphenyl)-N-(3-fluoro-4-((7-(2-morpholinoethoxy)-1,6-naphthyridin-4-yl)oxy)phenyl) cyclopropyl-1,1-dicarboxamide], the IC50 lay within 1 to 10 nM on c-Met kinase and 100 to 1000 nM in the test on EBC-1 cells.
In the same order, the values of `Cc1noc(C)c1-c1cc2nccc(Oc3ccc(NC(=O)C4(C(=O)Nc5ccc(F)cc5)CC4)cc3F)c2cn1` [Compound 45S, N-(4-((7-(3,5-dimethylisoxazol-4-yl)-1,6-naphthyridin-4-yl)oxy)-3-fluorophenyl)-N-(4-fluorophenyl) cyclopropyl-1,1-dicarboxamide] are 100 to 1000 nM and 1000 to 10000 nM.

The record behind these values is patent publication US10710996B2, “Pyrido-azaheterecydic compound and preparation method and use thereof” (SHANGHAI INSTITUTE OF MATERIA MEDICA, CHINESE ACADEMY OF …, priority 2015, dated 2020).
